Assay results taken from US11324752B2, “Imeglimin for preventing and/or treating hepatocellular carcinoma” (ERICARE, priority 2017, dated 2022).
Entries after “also recorded” stand apart in the source; their conditions may differ. Counter-ions that a name gives are not always drawn.

Legend:
HepG2 [1] = assay: MTS Promega cell proliferation assay, HepG2; assay type: cell-based, human; conditions: period of 6 days
Experimental: (§1) In vitro anti-proliferative effect of imeglimin compared to that of metformin in 2 models of human hepatocellular carcinoma (HCC). Determination of IC50 (median inhibitory concentration) by the MTS Promega™ cell proliferation assay (CellTiter 96™ AQueous Nonradioactive Cell Proliferation Assay Kit).
(§2) Different mM concentrations (0, 0.1, 0.25, 0.5, 1.0, 2.5, 5.0, 7.5, 10, 25, 50, 100) of imeglimin and metformin were tested in vitro on two human CHC cell lines, HepG2 and HuH7, over a period of 6 days.

mitochondrial I complex = conditions: cited from earlier work
[2] = cited from earlier work
HepG2 line = conditions: for growth in volume of grafted tumors compared to placebo control group: FIG. 1
Experimental: In vivo anti-tumor activity of imeglimin compared to that of metformin, alone or in combination with sorafenib, on subcutaneous xenograft models of the CHC HepG2 line in 6 week old female mice with a BALB/c nude genetic background (Harlan).
Two million cells of the HepG2 line are injected into the left side of each mouse in a volume of 100 μl (50 μl PBS-50 μl matrigel). Mice developing a palpable tumor are randomized into 7 groups of
treatment of 14 mice according to the following design: placebo, imeglimin 75 mg/kg/day, imeglimin 150 mg/kg/day, metformin 75 mg/kg/day, sorafenib 40 mg/kg/day, imeglimin 75 mg/kg/day+sorafenib 40 mg/kg/day, metformin 75 mg/kg/day+sorafenib 40 mg/kg/day.
Metformin and imeglimin are administered in drinking water, sorafenib is administered by oral gavage. Treatment begins on the day of randomization.
The treatments were administered for 63 days. The evolution curves of the tumor volumes, as well as those of the weight of the animals, were analyzed during this period. The appearance of tumors and organs has been the subject of a macroscopic anatomic-pathological analysis.

[3] = seven Phase 1 studies, 216 subjects; cited from earlier work
[4] = seven Phase 2 studies, 611 patients; cited from earlier work
HuH7 [5] = assay: MTS Promega cell proliferation assay, HuH7; assay type: cell-based, human
Experimental: as §1, §2

[6] = STZ diabetic rat; 35 days; 50 and 100 mg/kg/day; cited from earlier work
[7] = in particular hepatocellular carcinoma; cited from earlier work
HuH7 [8] = conditions: in vitro; cited from earlier work
human liver tumor cells = conditions: immunocompromised mice; cited from earlier work
HepG2 [9] = conditions: in vitro; cited from earlier work
hepatocellular carcinoma = conditions: cited from earlier work
[10] = 1500 mg twice daily, similar to 850 mg of metformin twice daily

Q: Which “change of inhibitory effect with time” value (HepG2 [1]) does the source give for C[C@H]1N=C(N(C)C)N=C(N)N1 [imeglimin, (6R)-(+)-4-dimethylamino-2-imino-6-methyl-1,2,5,6-tetrahydro-1,3,5-triazine hydrochloride] here?
A: increases with time

Q: What about the “inhibition of mitochondrial I complex” value (mitochondrial I complex) of the same compound?
A: does not inhibit

Q: And the fasting glucose levels [2, 10]?
A: improves

Q: What about the “hemoglobin A1c” value [2, 10] of the same compound?
A: improves

Q: And the “tolerance profile compared with metformin” value ([2]; diabetic patients)?
A: greater than that of metformin

Q: What about the “dose effect on tumor growth” value (HepG2 line; 75 mg/kg/day to 150 mg/kg/day, hydrochloride) of the same compound?
A: dose-dependent inhibitory effect on tumor growth; also recorded: increases with the doubling of doses

Q: And the “mean weight of the animals” value (HepG2 line; 63 days of treatment)?
A: did not change

Q: What about the toxicity of treatment (HepG2 line; 63 days of treatment) of the same compound?
A: did not prove to be toxic

Q: What about the “growth in volume of grafted tumors compared to placebo control group” value (shortened to “growth … compared to placebo control group”) (HepG2 line; 63 days of treatment) of the same compound?
A: slow down the growth in volume of grafted tumors

Q: What about the “effect on tumor volume compared with metformin” value (HepG2 line; imeglimin 150 mg/kg/day vs metformin 75 mg/kg/day (equipotent doses), hydrochloride) of the same compound?
A: higher than metformin; also recorded: significantly greater than that of metformin

Q: And the “effect on tumor volume compared with sorafenib” value (HepG2 line; imeglimin 150 mg/kg/day vs sorafenib 40 mg/kg/day, hydrochloride)?
A: not significantly different from sorafenib; also recorded: does not have a significantly different effect

Q: And the “administration safety and tolerance” value [3]?
A: excellent administration safety and tolerance

Q: What about the “tolerance and safety of use” value [4] of the same compound?
A: excellent tolerance and safety of use similar to those of the placebo

Q: What about the “effect on HuH7 line compared with HepG2 line” value (HuH7 [5]) of the same compound?
A: much more marked

Q: What about the “change of inhibitory effect with time” value (HuH7 [5]; period of 6 days) of the same compound?
A: increases with time

Q: And the HbA1c [6]?
A: significantly decreased

Q: What about the fasting blood glucose [6] of the same compound?
A: significantly decreased

Q: Which “cancers in treated patients with type 2 diabetes versus other anti-diabetic drugs” value [7] does the source give for CN(C)C(=N)N=C(N)N [metformin] here?
A: fewer cancers

Q: What about the “cell growth inhibitory activity” value (HuH7 [8]) of the same compound?
A: has cell growth inhibitory activity

Q: What about the “growth … compared to placebo control group” value (HepG2 line; 63 days of treatment) of the same compound?
A: slow down the growth in volume of grafted tumors

Q: What about the anti-cancer activity (human liver tumor cells) of the same compound?
A: exhibits anti-cancer activity

Q: What about the “cell growth inhibitory activity” value (HepG2 [9]) of the same compound?
A: has cell growth inhibitory activity

Q: Which “growth … compared to placebo control group” value (HepG2 line; 63 days of treatment) does the source give for CNC(=O)c1cc(Oc2ccc(NC(=O)Nc3ccc(Cl)c(C(F)(F)F)c3)cc2)ccn1 [sorafenib, reference compound] here?
A: slow down the growth in volume of grafted tumors

Q: And the “anti-angiogenic effect, observation at sacrifice” value (HepG2 line; sorafenib 40 mg/kg/day alone or with imeglimin 75 mg/kg/day)?
A: exerts its anti-angiogenic properties

Q: What about the median survival time (hepatocellular carcinoma; patients with advanced hepatocellular carcinoma) of the same compound?
A: 10.7 months

Q: What about the “most important side effects” value (hepatocellular carcinoma; sorafenib group) of the same compound?
A: Diarrhea, weight loss, hand-foot syndrome and hypophosphatemia
